# Counter-ions that a name gives are not always drawn.
# Legend:
# [1] = target: T1, human beta-3-adrenergic receptor (Homo sapiens, UniProt P13945); assay: cAMP production (SPA) in CHO cells stably expressing human beta-3-adrenergic receptor, agonist activity; type: cell-based; conditions: cAMP production in CHO cells expressing human beta-3-adrenergic receptor; compounds binned (≦1 μM or >1 μM); read-out: Beta-3 Agonistic Activity, EC50 values
# T1 construct: Chinese hamster ovary (CHO) cells that stably express full-length human beta-3-adrenergic receptor; expressed in transfected cells
# T1 sequence (P13945 whole entry): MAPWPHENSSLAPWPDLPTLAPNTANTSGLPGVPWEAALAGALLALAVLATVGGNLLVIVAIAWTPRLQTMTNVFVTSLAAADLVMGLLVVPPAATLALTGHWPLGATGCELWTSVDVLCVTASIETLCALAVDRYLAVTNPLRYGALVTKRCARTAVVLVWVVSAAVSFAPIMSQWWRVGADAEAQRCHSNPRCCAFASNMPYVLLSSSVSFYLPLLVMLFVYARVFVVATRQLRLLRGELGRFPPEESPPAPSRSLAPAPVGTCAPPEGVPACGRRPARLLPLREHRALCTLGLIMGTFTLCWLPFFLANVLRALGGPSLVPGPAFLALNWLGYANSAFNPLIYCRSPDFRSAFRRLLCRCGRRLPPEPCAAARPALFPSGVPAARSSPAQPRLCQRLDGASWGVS
# Procedure: The cell line is grown in 90% F12 nutrient mixture (HAM), 10% fetal bovine serum, 100 units/ml penicillin G sodium, […] streptomycin sulfate, and 2 mM L-glutamine at 37° C. in 95% air and 5% CO2. The transfected cell line is maintained with G418 (800ug/ml).
# To test agonist activity, cells are exposed to test compound and then assayed for cAMP production. […] Test compounds are assayed from 10 μM to 3 nM with 3-fold serial dilutions. The control agonist, isoproterenol (10 mM stock in 1.1 mM ascorbate), is assayed by 3-fold dilution beginning at 1 μM. Following a 30-minute incubation with the test compounds, the buffer/compound mixture is removed. […] The cAMP values are then plotted to ascertain the EC50 of each compound tested.
Compound,melting point [°C],EC50 [1] [nM]
"O=C(O)c1ccc(-c2ccc3c(c2)CC[C@H](CNC[C@H](O)COc2ccccc2)O3)cc1 (as salt: hydrochloride) [Example 142, 4-[(2R)-2-({[(2S)-2-Hydroxy-3-phenoxyropyl]amino}methyl)-3,4-dihydro-2H-chromen-6-yl]benzoic acid]",250,–
"COC(=O)c1ccc(-c2ccc3c(c2)CC[C@H](CNC[C@H](O)COc2ccccc2)O3)cc1 [Example 84, Methyl 4-[(2R)-2-({[(2S)-2-hydroxy-3-phenoxypropyl]amino}methyl)-3,4-dihydro-2H-chromen-6-yl]benzoate]",–,≤ 1000
COC(=O)c1nc(-c2ccc3c(c2)CC[C@H](CNC[C@H](O)COc2ccccc2)O3)sc1-c1ccccc1 [Example 135],–,≤ 1000
O=C(O)c1ccc(-c2ccc3c(c2)CC[C@H](CNC[C@H](O)CSc2ccc(C(F)(F)F)cc2)O3)cc1 [Example 181],–,> 1000
"O=C(O)CCc1ccc2c(c1)CC[C@H](CNC[C@H](O)COc1ccccc1)O2 [Example 263, 3-[(2R)-2-({[(2S)-2-Hydroxy-3-phenoxypropyl]amino}methyl)-3,4-dihydro-2H-chromen-6-yl]propanoic acid]",–,≤ 1000
O=C(O)c1nc(-c2ccc3c(c2)CC[C@H](CNC[C@H](O)COc2ccccc2)O3)oc1-c1ccccc1 [Example 187],–,≤ 1000
"O=C(O)CCc1ccc2c(c1)CC[C@H](CNC[C@H](O)COc1ccccc1F)O2 [Example 265, 3-[(2R)-2-({[(2S)-3-(2-Fluorophenoxy)-2-hydroxypropyl]amino}methyl)-3,4-dihydro-2H-chromen-6-yl]propanoic acid]",–,≤ 1000
O=C(O)c1ccc(-c2ccc3c(c2)CC[C@H](CNC[C@H](O)COc2ccc(O)cc2)O3)cc1 [Example 163],–,≤ 1000
CCOC(=O)c1nc(-c2ccc3c(c2)CC[C@H](CNC[C@H](O)COc2ccccc2)O3)oc1-c1ccccc1 [Example 134],–,> 1000
